pEC50, pIC50: −log10 of the molar value.
Experiments:
DENV-2 strain 16681 = experiment: DENV-2 inhibition (cytopathic effect inhibition) using Viral ToxGlo assay in A549 cells; format: cell-based, Dengue 2 virus; conditions: Dengue virus, DENV2, 120 h, compounds at 10 μM, MOI 0.5, 5 days p.i., read-out: % DENV-2 Inhibition Mean (n = 3)
Procedure: Protocol for Screening Antiviral Compounds for DENV-2 Inhibition and Cytotoxicity Using Viral ToxGlo Assay
A549 cells were maintained in Dulbecco's Modified Eagle Medium (DMEM) supplemented with 10% fetal bovine serum, 100 U/ml penicillin and 100 μg/ml streptomycin. For the purposes of the screening assay they were grown to 90% confluency, trypsinized and recovered. The trypsin was neutralised with cell culture media and cells were centrifuged at 150×g for 5 minutes before discarding the supernatant and resuspending cell pellet in assay media (DMEM supplemented with 2% fetal bovine serum and 100 U/ml penicillin and 100 μg/ml streptomycin). The cells were seeded into 96-well white clear-bottomed cell culture plates at a density of 1.0×10^4 cells/well in 50 μl. For the media/background control column assay media only was added. Cell plates were placed in a humid chamber and incubated overnight at 37° C./5% CO2. After overnight incubation cells were checked for confluency and healthy appearance.
Test compounds were prepared at a final concentration of 10 μM in a maximum DMSO concentration of 1% (final assay concentration maximal 0.1% DMSO) and added to the cell plates in volumes of 10 μl. For cell control and virus control wells the test article solvent only was added. As a positive inhibition control, 7-Deaza-2′-C-methyladenosine was added at 100 μM in 3 wells. Virus (DENV-2 strain 16681) or assay media for cytotoxicity test wells and media/cell control wells was added immediately after test articles at an MOI of 0.5, 40 for 96 well plates respectively. Virus suspension was prepared by thawing DENV-2 frozen stocks and diluting to the required concentration of plaque forming units in assay media.
Cell plates were further incubated inside a humid chamber for 5 days p.i at 37° C./5% CO2. After the incubation period cells were observed under the microscope to check for characteristic cytopathic effect in virus control wells and healthy cells in the cell control wells. After plates were adjusted to room temperature 20 μl Viral ToxGlo (Promega) was added to each well of the 96-well cell plates. Plates were incubated at room temperature for 5 minutes before measuring the luminescence on a spectrophotometer (Envision, PerkinElmer).
DENV-2 inhibition was calculated as percentage of cytopathic effect inhibition relative to the virus control and cytotoxicity as percentage of cell survival relative to cell control wells.

[1] = system: Chikungunya Virus (CHIKV) strain LR2006-OPY1 with GFP modification (CHIK 5'LR); experiment: microbe, parasite or virus in culture; format: cell-based; conditions: HEK-293T, infected HEK293T cells; for inhibition at 1 µM: compounds at 1 μM, MOI 0.1, 22 h, mean of 2 experiments, values above 100 lowered to 100, read-out: % CHIKV Inhibition Mean (n = 2); for pIC50: second round of experiments, range stated for listed compounds, read-out: IC50 (CHIKV inhibition)
Procedure: The ability of the compounds to inhibit viral replication was assessed with an experiment in which infected cells were treated by compounds of formula (Ie) at 1 μM. As a positive control for inhibition of Chikungunya, Ribavirin was used. Toxicity of the compounds was assessed in parallel.
Human embryonic kidney cells 293T (HEK293T, CRL-11268) were maintained in Dulbecco's modified Eagle's Medium (DMEM, 31966-021, Thermo Fisher Scientific) supplemented with 10% of fetal bovine serum (FBS), penicillin and streptomycin. After removal of the medium, cells were washed with Ca^2+ and Mg^2+-free salt solution to remove all traces of serum. After aspiration of wash solution, cells were dissociated with 0.25% Trypsin-EDTA solution and incubated 30 s at least in 37° C. incubator. Concentration of cell suspension was determined by an automatic cell counter (EVE, NanoEntek) and, if needed, adjusted to 0.33×10^6 cells/mL with DMEM medium supplemented with 10% FBS.
100 μL of the cell suspension were dispatched in a ViewPlate-96 Black (6005182, PerkinElmer) and in a transparent 96-well cell culture plate (655180, Greiner bio-one). After an incubation for 24 h at 37° C. under 5% of CO2, compounds were added at the proper concentration.
An intermediate dilution was prepared with DMSO (D8418, Sigma) at 2 mM in a 96-well V-bottom microplate from the stock solution:
Mix 1 μL of the 50 mM stock library in 25 μL of DMSO.
Mix 2 μL of the 25 mM stock library in 25 μL of DMSO.
An intermediate dilution was prepared with DMSO (D8418, Sigma) at 25 mM in a 96-well V-bottom microplate from the stock solution:
Mix 2 μL of the 50 mM stock library in 2 μL of DMSO.
Perform serial dilution in 2 μL of DMSO 13 times to reach 0.0015 mM. Proceed as follows in table III:
For both screen and determination of IC50, 1 μL of each solution was added in a 1 mL Masterblock 96 wells (Greiner bio-one, 780261) containing 1 mL of DMEM medium. As a positive control, 5 μL of a 80 mM Ribavirin solution (R9644, Sigma) is added to 1 mL of DMEM. On the other hand, DMSO is used as a negative control.
[…]. Vector Borne Zoonotic Dis. 2006; 6(4)). This modified virus was used to infect cells at MOI 0.1. […].
Medium was removed after 22 h at 37° C. under 5% of CO2 and cells were washed as described above. 60 μL of RIPA buffer (50 mM Tris-HCl pH8, 100 mM NaCl, 1 mM MgCl2, 1% Triton X-100) was added to cells and incubated for at least 20 min before reading fluorescence signal. Pierce 660 nm Protein Assay Reagent (22660, Thermo scientific) was used to normalize fluorescence signal by protein quantity.
• A first round of experiments has been performed wherein the results are expressed as inhibition percentage, which is calculated as follows, through the following steps: • 1. Fluorescence intensity (FI)/Absorbance 660 nm (A660)=A
This ratio allows considering the infection (GFP virus) to the protein amount. • 2. A′=A−background noise of non-infected plate, • 3. B=Fluorescence intensity (FI)/Absorbance 660 nm (A660) of infected but non treated plates, • 4. C=A′/B, which is then converted as the percentage of infection after treatment, compared to non-treated sample, and subsequently as the infection percentage. For instance, a value of 100 in Table IV here below means that, after treatment, the signal attributed to GFP fluorescence is abolished, which is correlated to the absence of infection. • 5. C′=100−C
This value corresponds to the inhibition's percentage.
The following Table IV encompasses said C′ value for some compounds, as calculated above with a mean of 2 experiments, and corresponding standard deviation.
Some values were originally above 100. In these cases, the value has been lowered to 100. This means that some molecules also have an impact on the viability of the cells. In other words, the A value may be lower than the background noise.
Moreover, for each measure, the test was performed with Ribavirin as control. The value of the inhibition percentage was checked, giving 100%.

RSV A2 = experiment: RSV inhibition (cytopathic effect inhibition) using Viral ToxGlo assay in HEp-2 cells; format: cell-based; conditions: human respiratory syncytial virus, RSV A2, MOI 0.5, HEp-2 cells, 72 h p.i.
Outline: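 HEp-2 cells in EMEM with 2% FBS were infected with RSV A2 at MOI 0.5 immediately after compound (≤1% DMSO) and incubated 72 h at 37 °C. Viral ToxGlo luminescence gave % cytopathic effect inhibition versus virus control, plus cytotoxicity versus cell control; EC50 derived from dose-response.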

Structure (SMILES) | inhibition at 10 µM (DENV-2 strain 16681) [%] | inhibition at 1 µM [1] [%] | pEC50 (RSV A2) | pIC50 [1]
Cc1cc(Nc2cccc(C(=O)NCCC3CCCC3)c2)ccc1OCc1ccccn1 [Compound 40, N-(2-cyclopentylethyl)-3-((3-methyl-4-(pyridin-2-ylmethoxy)phenyl)amino)benzamide] | 71 | 99 | – | –
CCc1cc(OCc2ccccn2)ccc1Nc1cccc(C(=O)NCCC(C)C)c1 [Compound 57, 3-((2-ethyl-4-(pyridin-2-ylmethoxy)phenyl)amino)-N-isopentylbenzamide] | – | – | 7.59 | 6.40 to 9.00
COc1cc(Nc2cccc(C(=O)NCCC3CCCC3)c2)ccc1OCc1ccccn1 [Compound 43, N-(2-cyclopentylethyl)-3-((3-methoxy-4-(pyridin-2-ylmethoxy)phenyl)amino)benzamide] | 71 | 100 | – | –
Cc1cc(OCc2ccccn2)ccc1Nc1cccc(C(=O)NCCC2CCCC2)c1 [Compound 39, N-(2-cyclopentylethyl)-3-((2-methyl-4-(pyridin-2-ylmethoxy)phenyl)amino)benzamide] | – | 98 | 6.73 | –
c1ccc(COc2ccc(Nc3cccc(OCCCC4CCCC4)c3)cc2)nc1 [Compound 73, 3-(3-cyclopentylpropoxy)-N-(4-(pyridin-2-ylmethoxy)phenyl)aniline] | – | 100 | – | –
N#Cc1ccccc1COc1ccc(Nc2cccc(C(=O)NCCC3CCCC3)c2)cc1 [Compound 51, 3-((4-((2-cyanobenzyl)oxy)phenyl)amino)-N-(2-cyclopentylethyl)benzamide] | – | 100 | – | –
O=C(NCCC1CCCC1)c1cccc(Nc2ccc(OCc3ccccn3)c(O)c2)c1 [Compound 53, N-(2-cyclopentylethyl)-3-((3-hydroxy-4-(pyridin-2-ylmethoxy)phenyl)amino)benzamide] | – | – | – | 6.40 to 9.00
O=C(NCCC1CCCC1)c1cccc(Nc2ccc(OCc3ccccc3)cc2)c1 [Compound 52, 3-((4-(benzyloxy)phenyl)amino)-N-(2-cyclopentylethyl)benzamide] | – | 99 | – | –
O=C(NCCC1CCCC1)c1cccc(Nc2ccc(OCc3ccccc3F)cc2)c1 [Compound 50, N-(2-cyclopentylethyl)-3-((4-((2-fluorobenzyl)oxy)phenyl)amino)benzamide] | – | 100 | – | –
O=C(NCCC1CCC1)c1cccc(Nc2ccc(OCc3ccccn3)cc2)c1 [Compound 48, N-(2-cyclobutylethyl)-3-((4-(pyridin-2-ylmethoxy)phenyl)amino)benzamide] | 110 | 98 | – | –
Cc1cc(OCc2ccccn2)ccc1Nc1cccc(C(=O)NC2CCCC2)c1 [Compound 71, N-cyclopentyl-3-((2-methyl-4-(pyridin-2-ylmethoxy)phenyl)amino)benzamide] | – | – | 6.73 | 6.40 to 9.00
Cc1cc(OCc2ccccn2)ccc1Nc1cccc(C(=O)NCCC2CC(F)(F)C2)c1 [Compound 70, N-(2-(3,3-difluorocyclobutyl)ethyl)-3-((2-methyl-4-(pyridin-2-ylmethoxy)phenyl)amino)benzamide] | – | – | 6.18 | 6.40 to 9.00
CCc1cc(OCc2ccccn2)ccc1Nc1cccc(C(=O)NCCC2CCCC2)c1 [Compound 58, N-(2-cyclopentylethyl)-3-((2-ethyl-4-(pyridin-2-ylmethoxy)phenyl)amino)benzamide] | – | – | – | 6.40 to 9.00
Cc1cc(OCc2ccccn2)ccc1Nc1cccc(C(=O)NCCC2CCCCC2)c1 [Compound 47, N-(2-cyclohexylethyl)-3-((2-methyl-4-(pyridin-2-ylmethoxy)phenyl)amino)benzamide] | – | 96 | 6.74 | –
O=C(NCCC1CCCC1)c1cccc(Nc2ccc(OCc3ccccn3)nc2)c1 [Compound 41, N-(2-cyclopentylethyl)-3-((6-(pyridin-2-ylmethoxy)pyridin-3-yl)amino)benzamide] | – | 99 | – | –
O=C(NCCC1CC1)c1cccc(Nc2ccc(OCc3ccccn3)cc2)c1 [Compound 49, N-(2-cyclopropylethyl)-3-((4-(pyridin-2-ylmethoxy)phenyl)amino)benzamide] | 111 | 98 | – | –
Cc1cc(OCc2ccccn2)ccc1Nc1cccc(C(=O)NCCC(C)C)c1 [Compound 54, N-isopentyl-3-((2-methyl-4-(pyridin-2-ylmethoxy)phenyl)amino)benzamide] | – | – | 6.75 | 6.40 to 9.00
O=C(NCCC1CCCC1)c1cccc(Nc2ccc(OCc3ccccn3)cc2)c1 [Compound 36, N-(2-cyclopentylethyl)-3-((4-(pyridin-2-ylmethoxy)phenyl)amino)benzamide] | – | 99 | 6.63 | –
CC(C)CCNC(=O)c1cccc(Nc2ccc(OCc3ccccn3)cc2)c1 [Compound 37, N-isopentyl-3-((4-(pyridin-2-ylmethoxy)phenyl)amino)benzamide] | – | 100 | – | –

From patent US12421206B2, “Aryl-n-aryl derivatives for treating a RNA virus infection” (ABIVAX, priority 2018, dated 2025)
